For one data set, the target named is T1, Kallikrein-5 (Homo sapiens, UniProt Q9Y337).
T1 sequence (Q9Y337 whole entry): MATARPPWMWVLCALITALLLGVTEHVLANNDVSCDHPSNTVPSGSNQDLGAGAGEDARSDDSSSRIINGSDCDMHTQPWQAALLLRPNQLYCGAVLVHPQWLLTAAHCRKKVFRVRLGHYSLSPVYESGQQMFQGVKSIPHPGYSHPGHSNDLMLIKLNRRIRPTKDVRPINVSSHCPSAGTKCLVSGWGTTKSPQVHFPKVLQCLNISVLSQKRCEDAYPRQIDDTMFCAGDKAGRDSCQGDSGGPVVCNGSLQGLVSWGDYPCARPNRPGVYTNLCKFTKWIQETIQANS
In words: Inhibition of C-terminal poly-His-tagged human recombinant KLK5 (30 to 293 residues) transfected in CHO cells assessed as inhibition constant using Boc-VPR-AMC as fluorogenic substrate incubated for 30 mins by fluorescence plate reader assay. Type of data set: cell-based.

Data set [1] can be described thus: Stability of the compound in human plasma assessed as half life […] by LC-MS analysis. The class given is ADME, cell-free.
In another data set the target is Kallikrein-7 (Homo sapiens, UniProt P49862). Nature of the data set: Inhibition of C-terminal poly-His-tagged human recombinant KLK7 (30 to 253 residues) transfected in CHO cells assessed as inhibition constant using KHLY-pNA as fluorogenic substrate incubated for 30 mins by fluorescence plate reader assay. Type of data set: cell-based.
Sequence of Kallikrein-7 (P49862 whole entry, the tested form may be a part): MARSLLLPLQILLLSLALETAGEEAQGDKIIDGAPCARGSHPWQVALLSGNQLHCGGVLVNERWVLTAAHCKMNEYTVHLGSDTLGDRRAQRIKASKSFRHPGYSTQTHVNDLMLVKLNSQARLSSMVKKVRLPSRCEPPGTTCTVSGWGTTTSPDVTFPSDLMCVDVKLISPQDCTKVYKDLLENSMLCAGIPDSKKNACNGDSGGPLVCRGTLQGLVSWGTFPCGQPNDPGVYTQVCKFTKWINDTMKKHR

Each structure is given as a SMILES string. Numbered stars: 1 amine (or outer) side, 2 acyl side, 3 side chain; on linkers, the order of the positions; unused ones are H or OH. Bridge positions count the residues as written; N and C are the ends. Peptide text beside a SMILES is read from it. * marks the point of attachment. Pyridine(2,6-diCH2) = c1cc(C[*:1])nc(C[*:2])c1; Pyrrolidin1yl(2S-Ac) = CC(=O)[C@@H]1CCCN1*; CH2COCH2 = O=C(C[*:1])C[*:2]

For `CC(C)[C@H](NC(=O)[C@H]1CSCc2cccc(n2)CSC[C@@H](NC(=O)[C@H](CO)NC(=O)CNC(=O)[C@@H]2CCCN2C(=O)[C@@H](NC(=O)[C@H](CO)NC(=O)[C@H](CC(=O)O)NC(=O)[C@@H]2CSCc3cccc(n3)CSC[C@H](NC(=O)CN)C(=O)N[C@@H]([C@@H](C)O)C(=O)N[C@@H](CCCNC(=N)N)C(=O)N[C@@H](CCC(N)=O)C(=O)N[C@@H](Cc3c[nH]c4ccccc34)C(=O)N3CCC[C@H]3C(=O)N2)C(C)C)C(=O)N[C@@H]([C@@H](C)O)C(=O)N1)C(=O)O`, the Ki – broadly, the dissociation constant of the complex between target and ligand, obtained from inhibition or displacement – at Kallikrein-5 (cho) stood at 2.7 nM.

Turning to `C[C@@H](O)[C@@H]1NC(=O)[C@@H](NC(=O)CN)CSCC(=O)CSC[C@@H](C(=O)O)NC(=O)[C@@H]2CCCN2C(=O)[C@H](Cc2c[nH]c3ccccc23)NC(=O)[C@H](CCC(=O)O)NC(=O)[C@H](CCCNC(=N)N)NC1=O`, the Ki on Kallikrein-5 was 5.1 nM.

Turning to `C[C@@H](O)[C@@H]1NC(=O)[C@@H](NC(=O)CN)CSCC(=O)CSC[C@@H](C(=O)O)NC(=O)[C@@H]2CCCN2C(=O)[C@H](Cc2c[nH]c3ccccc23)NC(=O)[C@H](CCC(N)=O)NC(=O)[C@H](CCCNC(=N)N)NC1=O`, at Kallikrein-5, the Ki is 3.6 nM.

Take `CCCCCCCCCCCCCCCC(=O)NCCCC[C@H](NC(=O)[C@H](CCC(=O)O)NC(=O)[C@H](Cc1ccc(O)cc1)NC(=O)[C@H](CCC(=O)O)NC(=O)COCCOCCNC(=O)c1ccc(-c2c3ccc(=O)cc-3oc3cc(O)ccc23)c(C(=O)O)c1)C(=O)N[C@@H](CCC(=O)O)C(=O)N[C@@H](Cc1ccc(O)cc1)C(=O)N[C@@H](CCC(=O)O)C(=O)NCCOCCOCC(=O)NCCCC[C@H](NC(=O)CNC(=O)[C@@H]1CSCC(=O)CSC[C@H](NC(=O)[C@@H]2CCCN2)C(=O)N[C@@H](CC(C)C)C(=O)N[C@@H](Cc2ccc(O)cc2)C(=O)N[C@@H](CCCC)C(=O)N[C@@H](C)C(=O)N[C@@H](CCCCNC(=N)N)C(=O)N1)C(=O)NCC(N)=O`: the half-life (commonly how long it takes for the measured level to halve) in data set [1] was 4 h.

For `CC(C)C[C@@H]1NC(=O)[C@@H](NC(=O)[C@H](CCC(N)=O)NC(=O)[C@@H]2CCCN2C(=O)[C@H](CC(N)=O)NC(=O)[C@H](C)NC(=O)[C@@H]2CSCc3cccc(n3)CSC[C@H](NC(=O)[C@H](C)N)C(=O)N[C@@H]([C@@H](C)O)C(=O)N[C@@H](CCCNC(=N)N)C(=O)N[C@@H](CCC(=O)O)C(=O)N[C@@H](Cc3ccc(O)cc3)C(=O)N[C@@H](CC(N)=O)C(=O)N3CCC[C@H]3C(=O)N[C@@H](CCC(N)=O)C(=O)N2)CSCc2cccc(n2)CSC[C@@H](C(=O)N[C@@H](Cc2cnc[nH]2)C(=O)O)NC1=O`, on Kallikrein-5, the Ki was found to be 6.1 nM.

Consider `CC(C)C[C@@H]1NC(=O)[C@@H](NC(=O)[C@H](CCC(N)=O)NC(=O)[C@@H]2CCCN2C(=O)[C@H](CC(N)=O)NC(=O)[C@H](C)NC(=O)[C@@H]2CSCC(=O)CSC[C@H](NC(=O)[C@H](C)N)C(=O)N[C@@H]([C@@H](C)O)C(=O)N[C@@H](CCCNC(=N)N)C(=O)N[C@@H](CCC(=O)O)C(=O)N[C@@H](Cc3ccc(O)cc3)C(=O)N[C@@H](CC(N)=O)C(=O)N3CCC[C@H]3C(=O)N[C@@H](CCC(N)=O)C(=O)N2)CSCC(=O)CSC[C@@H](C(=O)N[C@@H](Cc2cnc[nH]2)C(=O)O)NC1=O`, for which, on Kallikrein-5, the Ki worked out at 28 nM.

Take `CSCC[C@@H]1NC(=O)[C@H](Cc2ccc(O)cc2)NC(=O)[C@H](CC(C)C)NC(=O)[C@@H](NC(=O)[C@@H](N)CCC(N)=O)CSCC(=O)CSC[C@@H](C(=O)N[C@@H](CO)C(=O)N2CCC[C@H]2C(=O)N[C@H](C(=O)N[C@H]2CSCC(=O)CSC[C@@H](C(=O)N[C@@H](CCC(N)=O)C(=O)O)NC(=O)[C@H](Cc3ccc(O)cc3)NC(=O)[C@H](CCC(N)=O)NC(=O)[C@H](CCC(N)=O)NC(=O)[C@@H]3CCCN3C2=O)C(C)C)NC(=O)[C@H](CCCNC(=N)N)NC(=O)[C@H](C)NC1=O` (H-QCLYMARCSPVCPQQYCQ-OH; linker 2-8, 12-17 via CH2COCH2): on Kallikrein-7, the Ki worked out at 9 nM.

For the compound `CC(C)[C@@H]1NC(=O)[C@H](CCC(N)=O)NC(=O)[C@H](CCCNC(=N)N)NC(=O)[C@H]([C@@H](C)O)NC(=O)[C@@H](NC(=O)CN)CSCc2cccc(n2)CSC[C@@H](C(=O)N[C@@H](CCC(N)=O)C(=O)N[C@@H](CCC(N)=O)C(=O)N[C@H](C(=O)N2CCC[C@H]2C(=O)N[C@@H](C)C(=O)N[C@H]2CSCc3cccc(n3)CSC[C@@H](C(=O)N[C@@H](CC(N)=O)C(=O)O)NC(=O)[C@H](C)NC(=O)[C@H](CO)NC(=O)[C@@H]3CCCN3C2=O)[C@@H](C)O)NC1=O` (H-GCTRQVCQQTPACPSACN-OH; linker 2-7, 13-17 via Pyridine(2,6-diCH2)), the Ki at Kallikrein-5 is 7 nM.

In the case of `C[C@@H](O)[C@@H]1NC(=O)[C@@H](NC(=O)CN)CSCC(=O)CSC[C@@H](C(=O)O)NC(=O)[C@@H]2CCCN2C(=O)[C@H](Cc2ccc(O)cc2)NC(=O)[C@H](CCC(=O)O)NC(=O)[C@H](CCCNC(=N)N)NC1=O`, the Ki on Kallikrein-5 came to 3.2 nM.

In the case of `CC(C)[C@H](NC(=O)[C@H]1CSCc2cccc(n2)CSC[C@@H](NC(=O)[C@H](CO)NC(=O)CNC(=O)[C@@H]2CCCN2C(=O)[C@@H](NC(=O)[C@H](CO)NC(=O)[C@H](CC(=O)O)NC(=O)[C@@H]2CSCc3cccc(n3)CSC[C@@H](NC(=O)CN)C(=O)N[C@@H]([C@@H](C)O)C(=O)N[C@@H](CCCNC(=N)N)C(=O)N[C@@H](CCC(N)=O)C(=O)N[C@@H](Cc3c[nH]c4ccccc34)C(=O)N3CCC[C@H]3C(=O)N2)C(C)C)C(=O)N[C@@H]([C@@H](C)O)C(=O)N1)C(=O)O`, the inhibition constant Ki on Kallikrein-5 (cho) turned out to be 2 nM.

For the compound `CC[C@H](C)[C@@H]1NC(=O)[C@H](Cc2ccc(O)cc2)NC(=O)[C@H](CC(C)C)NC(=O)[C@@H](NC(=O)[C@@H](N)CCC(N)=O)CSCc2cccc(n2)CSC[C@@H](C(=O)N2CCC[C@H]2C(=O)N[C@@H](CO)C(=O)N[C@@H](C)C(=O)N[C@@H](C)C(=O)N[C@@H](CCCCN)C(=O)N[C@H]2CSCc3cccc(n3)CSC[C@@H](C(=O)N[C@@H](CCC(N)=O)C(N)=O)NC(=O)CNC(=O)[C@H](CC(N)=O)NC(=O)[C@H](CC(=O)O)NC2=O)NC(=O)[C@H](C)NC1=O` (H-QCLYIACPSAAKCDNGCQ-NH2; linker 2-7, 13-17 via Pyridine(2,6-diCH2)), the Ki at Kallikrein-7 was 32 nM.

With `CC(C)C[C@@H]1NC(=O)[C@@H](NC(=O)[C@@H]2CCCN2)CSCC(=O)CSC[C@@H](C(=O)N[C@@H](CO)C(=O)O)NC(=O)[C@H](CCCNC(=N)N)NC(=O)[C@H](CO)NC(=O)[C@H](CC(C)C)NC(=O)[C@H](Cc2ccc(O)cc2)NC1=O` (racemic), at Kallikrein-7 (cho), the Ki was 90 nM.

Consider `CC(=O)[C@@H]1CCCN1C(=O)[C@@H]1CSCc2cccc(n2)CSC[C@H](NC(=O)[C@@H]2CCCN2)C(=O)N[C@@H](CC(C)C)C(=O)N[C@@H](Cc2ccc(O)cc2)C(=O)N[C@@H](CC(C)C)C(=O)N[C@@H](CO)C(=O)N1` (H-PCLYLSC-{Pyrrolidin1yl(2S-Ac)}; linker 2-7 via Pyridine(2,6-diCH2)), for which, on Kallikrein-7, the Ki worked out at 50 nM.

With `CSCC[C@H](N)C(=O)N[C@H]1CSCC(=O)CSC[C@@H](C(=O)N[C@H]2CSCC(=O)CSC[C@@H](C(=O)N3CCC[C@H]3C(=O)O)NC(=O)[C@H]([C@@H](C)O)NC(=O)[C@H](CCCNC(=N)N)NC(=O)[C@H](CCC(N)=O)NC(=O)[C@@H]3CCCN3C2=O)NC(=O)[C@H](CC(C)C)NC(=O)[C@H](CO)NC(=O)[C@@H]2CCCN2C(=O)[C@H](CC(=O)O)NC(=O)[C@H](Cc2c[nH]c3ccccc23)NC(=O)[C@H](CCC(N)=O)NC(=O)[C@H](CCCNC(=N)N)NC(=O)[C@H](CO)NC1=O`, on Kallikrein-5, the Ki was 24 nM.

The record behind these values is ChEMBL document CHEMBL5137037, “Phage Display Selected Cyclic Peptide Inhibitors of Kallikrein-Related Peptidases 5 and 7 and Their In Vivo Delivery to the Skin” (J Med Chem, 2022).
